These results are taken from patent US12084451B2, “Compositions and methods for reducing tactile dysfunction, anxiety, and social impairment” (President and Fellows of Harvard College, priority 2018, dated 2024).

Assay type in all cases: cell-based
Assay [1] deals with T1, hGABAA α1β3γ2 (Homo sapiens, UniProt P14867+P18507+P28472). Kind of assay: hGABAA IonFlux HT PAM Assay, α1β3γ2. The conditions noted are these: for Mean Maximal Effect (% of Control): normalized to baseline peak current induced by EC20 GABA (1 μM) for 2 seconds. From the text:
(§1) Ligand-gated ion channels targeted were hGABAA α1β3γ2 and hGABAA α2β3γ2.
(§2) Electrophysiological assays conducted to profile nine (9) compounds for activities on the on channel targets listed above for Positive Allosteric Modulator (PAM) activities using the IonFlux HT electrophysiological platform.
The parameters measured are described in the Data Analysis section.
(§3) All wells included a final DMSO concentration of 0.33% including all control wells.
(§4) All recordings were obtained from a holding potential of −60 mV. The compound addition sequence that was used for all additions was the same for all assays. […] The process was repeated with the next ascending concentration of test compound (FIG. 1).
(§5) All data were first exported to an Excel compatible data file and then analyzed using Graph Pad Prism software.

A further assay deals with hGABAA α2β3γ2 (Homo sapiens, UniProt P18507+P28472+P47869). The assay is described as follows: hGABAA IonFlux HT PAM Assay, α2β3γ2. The conditions noted are these: for Mean Maximal Effect (% of Control): normalized to baseline peak current induced by EC20 GABA (0.8 μM) for 2 seconds.
Chain of hGABAA α2β3γ2 (P47869 29-451): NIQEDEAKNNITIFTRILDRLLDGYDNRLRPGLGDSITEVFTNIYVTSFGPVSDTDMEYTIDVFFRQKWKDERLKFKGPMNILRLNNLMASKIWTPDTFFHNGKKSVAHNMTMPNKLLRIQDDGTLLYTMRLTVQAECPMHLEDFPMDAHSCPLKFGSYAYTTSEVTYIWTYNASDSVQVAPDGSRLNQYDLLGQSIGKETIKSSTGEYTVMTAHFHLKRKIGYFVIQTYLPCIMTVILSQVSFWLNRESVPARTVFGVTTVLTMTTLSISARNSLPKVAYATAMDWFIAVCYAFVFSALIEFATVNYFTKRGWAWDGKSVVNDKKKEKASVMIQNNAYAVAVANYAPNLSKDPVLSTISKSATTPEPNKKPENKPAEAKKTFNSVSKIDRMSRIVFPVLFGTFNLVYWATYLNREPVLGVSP
Chain of hGABAA α2β3γ2 (P28472 26-473): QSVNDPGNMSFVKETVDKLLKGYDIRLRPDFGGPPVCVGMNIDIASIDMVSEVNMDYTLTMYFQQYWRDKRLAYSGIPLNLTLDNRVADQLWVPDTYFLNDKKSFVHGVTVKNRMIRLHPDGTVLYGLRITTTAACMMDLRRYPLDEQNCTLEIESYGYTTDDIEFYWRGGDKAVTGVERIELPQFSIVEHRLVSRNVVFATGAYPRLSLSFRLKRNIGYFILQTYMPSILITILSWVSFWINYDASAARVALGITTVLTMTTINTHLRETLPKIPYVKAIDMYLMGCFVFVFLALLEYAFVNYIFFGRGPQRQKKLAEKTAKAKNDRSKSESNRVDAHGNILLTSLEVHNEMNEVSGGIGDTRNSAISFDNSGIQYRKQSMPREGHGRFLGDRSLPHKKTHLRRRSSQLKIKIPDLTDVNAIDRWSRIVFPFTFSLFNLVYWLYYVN
Chain of hGABAA α2β3γ2 (P18507 40-475): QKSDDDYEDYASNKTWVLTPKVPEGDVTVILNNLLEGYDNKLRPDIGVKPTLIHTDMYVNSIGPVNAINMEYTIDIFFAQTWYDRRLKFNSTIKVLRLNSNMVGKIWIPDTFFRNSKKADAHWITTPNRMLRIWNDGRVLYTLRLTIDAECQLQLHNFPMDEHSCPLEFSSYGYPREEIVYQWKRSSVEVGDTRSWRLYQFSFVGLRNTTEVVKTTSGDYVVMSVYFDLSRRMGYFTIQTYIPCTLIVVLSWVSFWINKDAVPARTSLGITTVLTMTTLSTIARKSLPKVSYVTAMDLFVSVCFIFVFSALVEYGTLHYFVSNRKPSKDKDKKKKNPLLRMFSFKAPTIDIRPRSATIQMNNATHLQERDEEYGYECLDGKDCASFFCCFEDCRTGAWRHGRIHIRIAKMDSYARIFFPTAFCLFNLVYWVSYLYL
Text: as §1, §2
The parameters measured are described in the Data Analysis section. […] Open circles represent data that has been excluded from the curve fitting. Where no curve fit was possible, n/c (not calculable) is listed.
as §3, §4, §5

The target of assay [2] is T1, hGABAA α1β3γ2. Kind of assay: hGABAA α1β3γ2 IonFlux HT Agonist Assay. Details: activation of hGABAA α1β3γ2 ion channel currents / activation: dose or concentration left out as unconfirmed. On the procedure: Ligand-gated ion channel targets were hGABAA α2β3γ2 and hGABAA α1β3γ2. Electrophysiological assays conducted to profile two compounds for agonist activities on hGABAA α2β3γ2 and seven compounds for agonist activities on hGABAA α1β3γ2 using the IonFlux HT electrophysiological platform.
The parameters measured are described in the Data Analysis section. […] Note: The test compounds was applied over two (2) ‘experimental patterns’ in increasing concentrations.
The supplied compound was prepared in DMSO to concentrations that were 300× the final assay concentrations. Aliquots were taken out and diluted 300× into external buffer to give the final assay concentration. At wells included a final DMSO concentration of 0.33% including all control wets.
All recordings were obtained from a holding potential of −60 mV. The compound addition sequence that was used for all additions was the same for all assays. […] Each test concentration of compound was applied for 2 seconds followed by 60 seconds wash. The process was repeated with the next ascending concentration of test compound. The test compounds were applied over two (2) ‘experimental patterns’ in increasing concentrations (FIG. 11).
AM data were first exported to an Excel compatible data file and then analyzed using Graph Pad Prism software.

Setting [3] is: Estimated EC50, positive modulation of EC20 GABA current.
[4] abbreviates: read-out: Normalized Percentage Activation Mean.
Setting [5] is: agonist activation of channel currents, read-out: Estimated EC50.
[6] abbreviates: positive modulation of EC20 GABA current.

Read-outs that look alike come from different tables or passages of the source. Where only a bound is given, the exact number is not on record here.

T1 sequence (P14867 28-456): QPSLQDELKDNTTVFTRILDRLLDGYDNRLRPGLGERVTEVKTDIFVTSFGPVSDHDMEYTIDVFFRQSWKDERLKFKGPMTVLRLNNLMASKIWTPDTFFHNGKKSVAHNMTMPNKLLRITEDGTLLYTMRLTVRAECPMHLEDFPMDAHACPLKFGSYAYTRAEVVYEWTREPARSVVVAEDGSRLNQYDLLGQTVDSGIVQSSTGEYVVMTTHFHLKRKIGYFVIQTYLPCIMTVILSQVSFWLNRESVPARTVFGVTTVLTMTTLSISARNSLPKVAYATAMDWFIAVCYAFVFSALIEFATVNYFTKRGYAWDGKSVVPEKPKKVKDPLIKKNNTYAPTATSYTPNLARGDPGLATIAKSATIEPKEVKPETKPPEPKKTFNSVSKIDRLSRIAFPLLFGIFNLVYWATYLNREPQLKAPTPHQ
T1 sequence (P28472 26-473): as the sequence (P28472 26-473) above
T1 sequence (P18507 40-475): as the sequence (P18507 40-475) above

For `CCN(CCN(C)C)C(=O)OC1c2nccnc2C(=O)N1c1ccc(Cl)cn1` (centres unmarked) [Compound 4], the EC50 at hGABAA α1β3γ2 [1] (setting [3]) was 2.47 µM. Also, the “Mean Maximal Effect (% of Control)” value on hGABAA α1β3γ2 [1] is recorded as 170 % of Control. The EC50 at hGABAA α2β3γ2 (setting [3]) is 5.8 µM. Also, at hGABAA α2β3γ2, the “Mean Maximal Effect (% of Control)” value was 126 % of Control. At hGABAA α1β3γ2 [2], the EC50 is above 1000 µM and the “activation of hGABAA α1β3γ2 ion channel currents” value is given as “did not activate”. Further, at hGABAA α1β3γ2 [2] (setting [4]), the activation stood at 4.45%, the activation at 0.3 µM was found to be 5.26%, the activation at 1 µM amounted to 5.13% and the activation at 3 µM came to 5.89%. Moreover, at hGABAA α1β3γ2 [2] (setting [4]), the activation at 10 µM worked out at 5.68%, the activation at 30 µM turned out to be 6.45%, the activation at 100 µM was found to be 5.97% and the activation at 300 µM turned out to be 5.85%.

On to `CNCCN(C)C(=O)Cc1c(-c2ccc(C)cc2)nc2ccc(C)cn12` [Compound 1], for which the “Mean Maximal Effect (% of Control)” value at hGABAA α1β3γ2 [1] is 282 % of Control. Further, at hGABAA α1β3γ2 [1] (read-out: Estimated EC50), the EC50 is 0.654 µM. Moreover, at hGABAA α2β3γ2, the “Mean Maximal Effect (% of Control)” value was 181 % of Control. For the same compound, the EC50 on hGABAA α2β3γ2 (read-out: Estimated EC50) was 3 µM. Besides, the “activation of hGABAA α1β3γ2 ion channel currents” value on hGABAA α1β3γ2 [2] is recorded as “did not activate”. Further, the EC50 at hGABAA α1β3γ2 [2] (setting [5]) was above 1000 µM. On hGABAA α1β3γ2 [2] (setting [4]), the activation amounted to 4.98%, the activation at 0.3 µM was 1.64%, the activation at 1 µM was 1.39% and the activation at 3 µM turned out to be 2.34%. On hGABAA α1β3γ2 [2] (setting [4]), the activation at 10 µM worked out at 6.52%, the activation at 30 µM came out at 4.78%, the activation at 100 µM was determined as 6.97% and the activation at 300 µM came to 7.15%.

Turning to `CN(C)CCN(C)C(=O)CC1c2nccnc2C(=O)N1c1ccc(Cl)cn1` (centres unmarked) [Compound 6], on hGABAA α1β3γ2 [1], the “Mean Maximal Effect (% of Control)” value is on record as 130 % of Control. Also, the “Estimated EC50” value on hGABAA α1β3γ2 [1] (setting [6]) was “n/c”. The “Mean Maximal Effect (% of Control)” value at hGABAA α2β3γ2 is listed as 122 % of Control. Also, the “Estimated EC50” value at hGABAA α2β3γ2 (setting [6]) is reported as “n/c”. On hGABAA α1β3γ2 [2], the “activation of hGABAA α1β3γ2 ion channel currents” value is listed as “did not activate”. The EC50 on hGABAA α1β3γ2 [2] (setting [5]) is above 1000 µM. On hGABAA α1β3γ2 [2] (setting [4]), the activation was 2.08%, the activation at 0.3 µM stood at 1.59%, the activation at 1 µM was 2.06% and the activation at 3 µM is 1.9%. Besides, on hGABAA α1β3γ2 [2] (setting [4]), the activation at 10 µM was determined as 1.89%, the activation at 30 µM turned out to be 1.74%, the activation at 100 µM worked out at 1.95% and the activation at 300 µM came out at 2.19%.

Regarding `CCN(CCNC)C(=O)CC1c2nccnc2C(=O)N1c1ccc(Cl)cn1` (centres unmarked) [Compound 5], on hGABAA α1β3γ2 [1], the “Mean Maximal Effect (% of Control)” value is on record as 136 % of Control. For the same compound, on hGABAA α1β3γ2 [1] (read-out: Estimated EC50), the EC50 is 3.16 µM. On hGABAA α2β3γ2, the “Mean Maximal Effect (% of Control)” value is on record as 126 % of Control. Besides, the EC50 at hGABAA α2β3γ2 (read-out: Estimated EC50) is 8.7 µM. Also, on hGABAA α1β3γ2 [2], the “activation of hGABAA α1β3γ2 ion channel currents” value is on record as “did not activate”. Besides, the EC50 on hGABAA α1β3γ2 [2] (setting [5]) is above 1000 µM. Further, on hGABAA α1β3γ2 [2] (setting [4]), the activation at 0.3 µM stood at 2.54%, the activation at 1 µM turned out to be 2.02%, the activation at 3 µM amounted to 2.28% and the activation at 10 µM worked out at 2.45%. Moreover, at hGABAA α1β3γ2 [2] (setting [4]), the activation at 30 µM turned out to be 3.08%, the activation at 100 µM is 3.75%, the activation at 300 µM is 2.7% and the activation at 10000 µM amounted to 2.38%.
